# Source: article PMC10714751 (Microbiology Spectrum, 2023)
# Starred links: 1 amine or outer side, 2 acyl side, 3 side chain; linkers in the order of their positions; H or OH if unused. Positions of bridges follow the written chain, without caps; N, C: chain ends. Non-standard residues stand in square brackets, D forms with d. Residues, ends and D or L forms follow the SMILES beside them. *: point of attachment. dAsp(3R-OH) = N[C@@H](C(=O)O)[C@@H](O)C(=O)O; Palmitoleoyl = CCCCCC/C=C\CCCCCCCC(=O)*; X1 = NC[C@H](O)[C@@H](N[*:1])C(=O)[*:2]; X2 = CCC(C)(O)[C@H](N[*:1])C(=O)[*:2]; d(aIle) = CC[C@H](C)[C@@H](N)C(=O)O; d(aThr) = C[C@@H](O)[C@@H](N)C(=O)O; Myristoyl = CCCCCCCCCCCCCC(=O)*; dOrn = NCCC[C@@H](N)C(=O)O; X3 = CC[C@H](C)CCCCC(=O)*; hSer = N[C@@H](CCO)C(=O)O; Dab = NCC[C@H](N)C(=O)O
# What was measured:
# [1] = system: pBR322 in C600; test: Antimicrobial broth dilution assay, empty vector control; details: MTT
# [2] = system: E. coli ΔompC, ΔompF; test: Broth dilution assay against OmpC and OmpF knockouts
# [3] = system: A. baumannii AB5075UW ΔlpxC::ISAbaI; test: Broth dilution assay against LpxC-deficient mutant; details: MIC90 ΔlpxC vs WT 5075UW, Fig. 2A
# [4] = system: pGDP2-MCR-1 in C600; test: Antibiotic susceptibility testing of MCR-1-expressing E. coli; details: broth dilution, MTT
# [5] = system: evolved turnercyclamycin B-resistant E. coli DH5α; test: Broth dilution assay against evolved resistant strains
# [6] = system: A. baumannii Tn26-mlaA insertion strains AB8497, AB8498, AB8499; test: Broth dilution assay against mlaA transposon mutants; details: for sensitivity of the mlaA mutants in comparison to the wild type: AB8497, AB8498, AB8499; for change of MIC90 against AB8497 versus wild type: mlaA insertion at position 132, twofold dilutions from 20 µg/mL; for change of MIC90 against AB8497 versus wild type / change of MIC90 against AB8499 versus wild type: 10 µg/mL tetracycline; for change of MIC90 against AB8499 versus wild type: mlaA insertion at position 507
# [7] = system: Keio E. coli mlaA knockouts (ΔmlaA); test: Broth dilution assay against Keio mlaA knockouts; details: triplicate, three biological replicates
# [8] = system: pBR322 in DH5α; test: Antimicrobial broth dilution assay, empty vector control; details: MTT
# [9] = system: Yersinia pestis; details: cited from earlier work
# [10] = system: E. coli DH5α; test: Antimicrobial broth dilution assay
# [11] = system: E. coli C600; test: Antimicrobial broth dilution assay; details: MTT
# [12] = system: A. baylyi ADP1 ΔpldA; test: Broth dilution assay against pldA knockout; details: Fig. S4
# [13] = system: pGDP2-MCR-1 in DH5α; test: Antibiotic susceptibility testing of MCR-1-expressing E. coli
# [14] = system: E. coli DH5α; test: Evolution of turnercyclamycin-resistant E. coli by sublethal dose passaging; details: for time of exposure to reach 32× the original MIC90: daily serial passaging, up to 63 d
# [15] = Pharmacokinetics in mice; format: in vivo; details: 5mg/kg IV, plasma, LC-MS/MS
# Protocol: Eurofins used mice from BioLASCO Taiwan.
# Protocols were performed at Eurofins (Taiwan). Turnercyclamycin A in plasma was measured by liquid chromatography-tandem mass spectrometry, and graphs illustrating the mean plasma concentrations (mean ± SD) over time were generated. PK parameters were obtained using non-compartmental analysis of the plasma data with WinNonlin.
# [16] = female, BALB/c, mouse, mice, non-compartmental analysis
smiles,measurement,setting,value
"CC[C@H](C)CCCCC(=O)N[C@@H](CCN)C(=O)N[C@H](C(=O)N[C@@H](CCN)C(=O)N[C@H]1CCNC(=O)[C@H]([C@@H](C)O)NC(=O)[C@H](CCN)NC(=O)[C@H](CCN)NC(=O)[C@H](CC(C)C)NC(=O)[C@@H](CC(C)C)NC(=O)[C@H](CCN)NC1=O)[C@@H](C)O [Colistin, colistin (polymyxin E)] (X3-[Dab]T[Dab][Dab][Dab][dL]L[Dab][Dab]T; lactam 4-C)",MIC90,[1],1 µg/mL
same,resistance of OmpC and OmpF knockouts,[2],not resistant
same,loss in susceptibility of A. baumannii ΔlpxC in comparison to the wild-type strain,[3],greater than fourfold
same,MIC90,[4],8 µg/mL
same,MIC90,[5]; Strain 1,0.5 µg/mL
same,MIC90,[5]; Strain 2 (found contaminated with Staphylococcus),0.5 µg/mL
same,MIC90,[5]; Strain 3,0.5 µg/mL
same,MIC90,[5]; Strain 4,0.5 µg/mL
same,MIC90,[5]; Strain 5,0.5 µg/mL
same,sensitivity of the mlaA mutants in comparison to the wild type,[6],potentially slightly more sensitive
same,MIC90,[7],0.25 µg/mL
same,MIC90,[8],0.5 µg/mL
same,susceptibility of Yersinia pestis after LPS modification with 4-amino-4-deoxy-L-arabinose,[9],blocked
same,MIC90,[10]; DH5α WT (Table 2),0.5 µg/mL
same,MIC90,[10]; text summary: both E. coli parent and vector-control strains (DH5α and C600),0.5 µg/mL
same,MIC90,[11],0.5 µg/mL
same,resistance of ΔpldA strain compared with WT A. baylyi ADP1,[12],did not significantly demonstrate resistance
same,loss of potency against strains expressing mcr-1 versus parent,[13]; MIC90 ratio mcr-1 strains / parent strains,16 fold
same,MIC90,[13]; text summary: strains expressing mcr-1 (DH5α and C600),8 µg/mL
"CO[C@H]1/C=C/O[C@@]2(C)Oc3c(C)c(O)c4c(O)c(cc(O)c4c3C2=O)NC(=O)/C(C)=C\C=C\[C@H](C)[C@H](O)[C@@H](C)[C@@H](O)[C@@H](C)[C@H](OC(C)=O)[C@@H]1C [Rifamycin, rifamycin]",sensitivity of the mlaA mutants in comparison to the wild type,[6],increase in sensitivity
CCCCCCCCCCCCCC(=O)N[C@H](CCCN)C(=O)N[C@@H](CO)C(=O)N[C@H](C(=O)N[C@@H](C(=O)N[C@@H](C(=O)N[C@H]1C(=O)NCC(=O)N[C@@H](C(C)(O)CC)C(=O)N[C@H]([C@@H](C)CC)C(=O)N[C@@H](CCO)C(=O)N[C@@H](C)C(=O)N[C@H]([C@@H](C)CC)C(=O)N[C@@H](CCC(=O)O)C(=O)O[C@@H]1C)[C@@H](O)CN)[C@@H](O)C(=O)O)C(C)C (stereo partly drawn) [Turnercyclamycin A] (Myristoyl-[dOrn]SV[dAsp(3R-OH)][X1][d(aThr)]G[X2][d(aIle)][hSer]A[d(aIle)]E; ester 6-C),loss in susceptibility of A. baumannii ΔlpxC in comparison to the wild-type strain,[3],greater than fourfold
same,sensitivity of turnercyclamycin B-resistant strains compared with wild type,"[5]; Table 2, Fig. S3",more sensitive
same,change of MIC90 against AB8497 versus wild type,[6],retained wild-type potency
same,change of MIC90 against AB8499 versus wild type,[6],retained wild-type potency
same,resistance reached by serial passaging (× original MIC90),[14]; daily passaging at sub-MIC for 63 d,8 ×
same,time of exposure to reach 32× the original MIC90,[14],> 63 days
same,AUC/D,"[15]; mice, non-compartmental analysis",58080 kg·ng·h/mL/mg
same,half-life,"[15]; BALB/c, mouse, ALB/c female mice, non-compartmental analysis (WinNonlin)",4.35 h
same,AUC(0-inf),[15]; [16],290 µg·h/mL
same,AUC(0-t),[15]; [16],285 µg·h/mL
same,C0,[15]; [16],33700 ng/mL
same,clearance,"[15]; female, BALB/c, mouse, mice, non-compartmental analysis, read-out: CL (clearance rate) (converted)",0.29 mL/min/kg
same,MRT,"[15]; female, BALB/c, mouse, mice, non-compartmental analysis, read-out: MRT (mean residence time)",5.83 h
same,Vd,"[15]; female, BALB/c, mouse, mice, non-compartmental analysis, read-out: VSS (Vd at steady state)",0.1 L/kg
CCCCCC/C=C\CCCCCCCC(=O)N[C@H](CCCN)C(=O)N[C@@H](CO)C(=O)N[C@H](C(=O)N[C@@H](C(=O)N[C@@H](C(=O)N[C@H]1C(=O)NCC(=O)N[C@@H](C(C)(O)CC)C(=O)N[C@H]([C@@H](C)CC)C(=O)N[C@@H](CCO)C(=O)N[C@@H](C)C(=O)N[C@H]([C@@H](C)CC)C(=O)N[C@@H](CCC(=O)O)C(=O)O[C@@H]1C)[C@@H](O)CN)[C@@H](O)C(=O)O)C(C)C (stereo partly drawn) [Turnercyclamycin B] (Palmitoleoyl-[dOrn]SV[dAsp(3R-OH)][X1][d(aThr)]G[X2][d(aIle)][hSer]A[d(aIle)]E; ester 6-C),change of MIC90 against AB8497 versus wild type,[6],doubled
same,change of MIC90 against AB8499 versus wild type,[6],fourfold
same,time of exposure to reach 32× the original MIC90,[14],8 to 14 days
